Literature values in patent US5756508A, “Muscarine antagonists” (Merck & Co., Inc., priority 1996, dated 1998).

Columns and labels:
[1] = test system: smooth muscle (ordinarily called m3 type); details: background statement
[2] = test system: axial elongation of the eye; details: background statement
pupil; ciliary muscle = details: background statement
[3] = background statement
[4] = test system: muscarinic receptors (antimuscarinic); details: background statement

C[N+]1(C)CCC(OC(=O)C(c2ccccc2)c2ccccc2)CC1 [Example 4-DAMP, 4-diphenylacetoxy-N-methylpiperadine methiodide]
selectivity for smooth muscle (m3 type) receptors [1]: relatively selective antagonist for smooth muscle

CN1CCc2cccc3c2[C@H]1Cc1ccc(O)c(O)c1-3 [apomorphine]
inhibition of axial elongation / enlargement of the eye [2]: found to inhibit or actually prevent the axial enlargement of the eye

CN1[C@@H]2CC[C@H]1C[C@@H](OC(=O)C(CO)c1ccccc1)C2 (stereo partly drawn) [atropine]
impairment of ocular focusing / near visual work (pupil; ciliary muscle): impairs near visual work like reading
pupil dilation (mydriasis) (pupil; ciliary muscle): causes mydriasis (increase of pupil size)
sensitization [3]: test positive in sensitization assays
antimuscarinic action / specificity [4]: long-acting non-specific antimuscarinic agent

CN1CCN(CC(=O)N2c3ccccc3C(=O)Nc3cccnc32)CC1 [pirenzepine]
pupil dilation (mydriasis) (pupil; ciliary muscle): far less effective at pupil dilation than atropine
sensitization [3]: test positive in sensitization assays
inhibition of axial elongation / enlargement of the eye [2]: inhibits axial elongation
